Reference: patent US9199981B2 (NOVARTIS AG, priority 2011, dated 2015)

Each molecule was assayed against c-kit (Homo sapiens (Human), UniProt P10721) (assay: Mo7e cell proliferation assay (SCF dependent proliferation)). Settings: Mo7e cells stimulated with human recombinant SCF, 48 hours, 1% FBS.
Type: cell-based
Description: Compounds of Formula (I) and Formula (II) provided herein were assayed to measure their capacity to inhibit c-kit and PDGFR kinases using the appropriate assay described below: c-Kit inhibition was evaluated using the Mo7e cell proliferation assay, and PDGFR inhibition was evaluated using the Rat A10 cell proliferation assay and the Human TG/HA-VSMC cell proliferation assay.
Mo7e Cell Proliferation Assay
The compounds of Table 1 and Table 2 were tested for inhibition of SCF dependent proliferation using human Mo7e cells which endogenously express c-kit in a 384 well format. […] After 48 hours of incubation at 37° C., cell viability was measured by adding 25 uL of CellTiter Glo (Promega) to the cells and the luminescence was measured by a CLIPR CCD camera (Molecular Devices).
The IC50 value is given as that concentration of the test compound in question that provoke a response halfway between the baseline and maximum responses.

c-kit, sequence (P10721 26-976): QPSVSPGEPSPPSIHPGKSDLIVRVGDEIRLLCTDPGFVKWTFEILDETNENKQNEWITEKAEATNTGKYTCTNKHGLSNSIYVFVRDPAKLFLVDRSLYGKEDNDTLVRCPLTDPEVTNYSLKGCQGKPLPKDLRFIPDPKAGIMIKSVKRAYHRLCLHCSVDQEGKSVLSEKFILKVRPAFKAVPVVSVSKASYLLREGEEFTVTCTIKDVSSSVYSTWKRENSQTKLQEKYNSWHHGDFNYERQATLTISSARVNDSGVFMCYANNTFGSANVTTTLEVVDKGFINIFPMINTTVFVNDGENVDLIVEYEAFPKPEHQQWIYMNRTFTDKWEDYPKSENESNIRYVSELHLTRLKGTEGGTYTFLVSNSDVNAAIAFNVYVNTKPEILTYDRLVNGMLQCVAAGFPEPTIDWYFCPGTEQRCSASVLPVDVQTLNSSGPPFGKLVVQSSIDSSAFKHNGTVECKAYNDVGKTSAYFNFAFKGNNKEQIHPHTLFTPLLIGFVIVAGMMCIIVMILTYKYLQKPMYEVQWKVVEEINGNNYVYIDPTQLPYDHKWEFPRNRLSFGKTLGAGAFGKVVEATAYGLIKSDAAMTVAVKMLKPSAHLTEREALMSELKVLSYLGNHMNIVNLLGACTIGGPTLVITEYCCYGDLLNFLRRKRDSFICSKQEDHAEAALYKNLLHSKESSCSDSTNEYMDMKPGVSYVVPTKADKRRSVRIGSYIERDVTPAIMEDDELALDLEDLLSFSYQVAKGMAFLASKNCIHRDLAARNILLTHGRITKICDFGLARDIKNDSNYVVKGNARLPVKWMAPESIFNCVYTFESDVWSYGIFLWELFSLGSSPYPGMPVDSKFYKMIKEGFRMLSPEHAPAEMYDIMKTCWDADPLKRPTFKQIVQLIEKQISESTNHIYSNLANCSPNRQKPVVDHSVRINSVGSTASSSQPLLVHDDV

Structure (SMILES)	IC50 [nM]
Cc1ccc(-c2noc(C3CC(F)(F)C3)n2)cc1NC(=O)c1cnc2ccc(-c3ccn(C)n3)cn12 [F43]	12
Cc1ccc(-c2noc(C3CC(F)(F)C3)n2)cc1NC(=O)c1cnc2ccc(-c3cnn(CC(C)(C)O)c3)cn12 [F44]	6
Cc1ccc(-c2noc(C3CC(n4cccn4)C3)n2)cc1NC(=O)c1cnc2ccccn12 (stereo not drawn) [F45, N-(5-(5-(3-(1H-pyrazol-1-yl)cyclobutyl)-1,2,4-oxadiazol-3-yl)-2-methylphenyl)imidazo[1,2-a]pyridine-3-carboxamide]	71
Cc1ccc(-c2noc(C3CC(F)(F)C3)n2)cc1NC(=O)c1cnc2ccc(-c3cscn3)cn12 [F46]	13
Cn1cc(-c2ccc3ncc(C(=O)Nc4cc(-c5noc(C6CC(F)(F)C6)n5)ccc4F)n3c2)cn1 [F47]	33
CC(C)(O)Cn1cc(-c2ccc3ncc(C(=O)Nc4cc(-c5noc(C6CC(F)(F)C6)n5)ccc4F)n3c2)cn1 [F48]	16
Cc1ccc(-c2noc(C3CC(F)(F)C3)n2)cc1NC(=O)c1cnc2cc(C3CCN(S(C)(=O)=O)CC3)ccn12 [F49, N-(5-(5-(3,3-difluorocyclobutyl)-1,2,4-oxadiazol-3-yl)-2-methylphenyl)-7-(1-(methylsulfonyl)piperidin-4-yl)imidazo[1,2-a]pyridine-3-carboxamide]	33
Cc1ccc(-c2noc(C3CC(F)(F)C3)n2)cc1NC(=O)c1cnc2ccc(-c3cnn(CCN4CCOCC4)c3)cn12 [F50]	26
O=C(Nc1cc(-c2noc(C3CC(F)(F)C3)n2)ccc1F)c1cnc2ccc(-c3cnn(CCN4CCOCC4)c3)cn12 [F51]	85
Cc1ccc(-c2noc(C3CC(F)(F)C3)n2)cc1NC(=O)c1cnc2ccc(COCC(F)(F)F)cn12 [F52]	79
CC(=O)CCc1ccc2ncc(C(=O)Nc3cc(-c4noc(C5CC(F)(F)C5)n4)ccc3C)n2c1 [F53, N-(5-(5-(3,3-difluorocyclobutyl)-1,2,4-oxadiazol-3-yl)-2-methylphenyl)-6-(3-oxobutyl)imidazo[1,2-a]pyridine-3-carboxamide]	45
Cc1ccc(-c2noc(C3CC(F)(F)C3)n2)cc1NC(=O)c1cnc2ccc(CCC(C)(C)O)cn12 [F54, N-(5-(5-(3,3-difluorocyclobutyl)-1,2,4-oxadiazol-3-yl)-2-methylphenyl)-6-(3-hydroxy-3-methylbutyl)imidazo[1,2-a]pyridine-3-carboxamide]	31
Cc1ccc(-c2noc(CCC3(O)CC3)n2)cc1NC(=O)c1cnc2ccccn12 [F55a, N-(5-(5-(2-(1-hydroxycyclopropyl)ethyl)-1,2,4-oxadiazol-3-yl)-2-methylphenyl)imidazo[1,2-a]pyridine-3-carboxamide]	92
Cc1ccc(-c2noc(C3CCC3)n2)cc1NC(=O)c1cnc2ccccn12 [F57]	23
Cc1ccc(-c2noc(C3CC(C)(C)C3)n2)cc1NC(=O)c1cnc2ccccn12 [F58]	20
Cc1ccc(-c2noc(C3CC(F)(F)C3)n2)cc1NC(=O)c1cnc2cc(N3CCOCC3)ccn12 [F59, N-(5-(5-(3,3-difluorocyclobutyl)-1,2,4-oxadiazol-3-yl)-2-methylphenyl)-7-morpholinoimidazo[1,2-a]pyridine-3-carboxamide]	7
Cc1nnc(-c2ccc3ncc(C(=O)Nc4cc(-c5noc(C6CC(F)(F)C6)n5)ccc4F)n3c2)[nH]1 [F61, N-(5-(5-(3,3-difluorocyclobutyl)-1,2,4-oxadiazol-3-yl)-2-fluorophenyl)-6-(5-methyl-4H-1,2,4-triazol-3-yl)imidazo[1,2-a]pyridine-3-carboxamide]	154
Cc1ccc(-c2noc(C3CC(F)(F)C3)n2)cc1NC(=O)c1cnc2ccc(CCN3CCN(C)CC3)cn12 [F63, N-(5-(5-(3,3-difluorocyclobutyl)-1,2,4-oxadiazol-3-yl)-2-methylphenyl)-6-(2-(4-methylpiperazin-1-yl)ethyl)imidazo[1,2-a]pyridine-3-carboxamide]	82
Cc1ccc(-c2noc(C3CC3(F)F)n2)cc1NC(=O)c1cnc2ccccn12 (stereo not drawn) [F64, N-(5-(5-(2,2-difluorocyclopropyl)-1,2,4-oxadiazol-3-yl)-2-methylphenyl)imidazo[1,2-a]pyridine-3-carboxamide]	52
Cc1ccc(-c2noc(C3CC(F)(F)C3)n2)cc1NC(=O)c1cnc2cc(-c3c[nH]nn3)ccn12 [F65, N-(5-(5-(3,3-difluorocyclobutyl)-1,2,4-oxadiazol-3-yl)-2-methylphenyl)-7-(1H-1,2,3-triazol-4-yl)imidazo[1,2-a]pyridine-3-carboxamide]	13
Cc1ccc(-c2noc(C3CC(F)(F)C3)n2)cc1NC(=O)c1cnc2cc(-c3cn(CCO)nn3)ccn12 [F66, N-(5-(5-(3,3-difluorocyclobutyl)-1,2,4-oxadiazol-3-yl)-2-methylphenyl)-7-(1-(2-hydroxyethyl)-1H-1,2,3-triazol-4-yl)imidazo[1,2-a]pyridine-3-carboxamide]	16
Cc1cc(C)c(-c2noc(C3CC(F)(F)C3)n2)cc1NC(=O)c1cnc2ccccn12 [F67]	49
Cc1ccc(-c2noc(C3CC(F)(F)C3)n2)cc1NC(=O)c1cnc2cc(N3CCOC3=O)ccn12 [F68]	39
Cc1ccc(-c2noc(C3CCCC3)n2)cc1NC(=O)c1cnc2ccccn12 [F74]	33
Cc1ccc(-c2noc(C3CC4(CC(=O)C4)C3)n2)cc1NC(=O)c1cnc2ccccn12 [F75, N-(2-methyl-5-(5-(6-oxospiro[3.3]heptan-2-yl)-1,2,4-oxadiazol-3-yl)phenyl)imidazo[1,2-a]pyridine-3-carboxamide]	17
Cc1ccc(-c2noc(C3CC(F)(F)C3)n2)cc1NC(=O)c1cnc2cc(N3CCCC3=O)ccn12 [F76]	37
Cc1ccc(-c2noc(C3CC(F)(F)C3)n2)cc1NC(=O)c1cnc2ccc(COCC(F)F)cn12 [F77]	32

Structure (SMILES)	IC50 [nM]
Cc1nnc(-c2ccc3ncc(C(=O)Nc4cc(-c5noc(C6CC(F)(F)C6)n5)ccc4C)n3c2)[nH]1 [F79, N-(5-(5-(3,3-difluorocyclobutyl)-1,2,4-oxadiazol-3-yl)-2-methylphenyl)-6-(5-methyl-1H-1,2,4-triazol-3-yl)imidazo[1,2-a]pyridine-3-carboxamide]	55
[2H]C([2H])([2H])c1ccn2c(C(=O)Nc3cc(-c4noc(C5CC(F)(F)C5)n4)ccc3C)cnc2c1 [F80]	19
Cc1ccc(-c2noc(C3CC(F)(F)C3)n2)cc1NC(=O)c1cnc2ccc(N3CCOCC3)cn12 [F81]	26
Cc1ccc(-c2noc(C3CC(F)(F)C3)n2)cc1NC(=O)c1cnc2ccc(-n3ccnc3)cn12 [F82]	78
Cc1ccc(-c2noc(C3CC(F)(F)C3)n2)cc1NC(=O)c1cnc2ccc(COCCF)cn12 [F83]	29
COCc1n[nH]c(-c2ccc3ncc(C(=O)Nc4cc(-c5noc(C6CC(F)(F)C6)n5)ccc4C)n3c2)n1 [F84]	22
Cc1ccc(-c2noc(C3CC3(F)F)n2)cc1NC(=O)c1cnc2ccc(COCC(F)(F)F)cn12 (stereo not drawn) [F85]	69
Cc1ccc(-c2noc(C3CCC3)n2)cc1NC(=O)c1cnc2ccc(COCC(F)(F)F)cn12 [F86]	49
Cc1ccn2c(C(=O)Nc3cc(-c4noc([C@H]5C[C@](O)(C(F)(F)F)C5)n4)ccc3C)cnc2c1 [F89]	25
Cc1ccc(-c2noc([C@H]3C[C@](O)(C(F)(F)F)C3)n2)cc1NC(=O)c1cnc2ccc(F)cn12 [F90]	40
Cc1ccc(-c2noc([C@H]3C[C@@H]3F)n2)cc1NC(=O)c1cnc2ccccn12 [F91]	20
[2H]c1c([2H])c([2H])n2c(C(=O)Nc3cc(-c4noc(C5CC(F)(F)C5)n4)ccc3C)cnc2c1[2H] [F92]	35
Cc1ccc(C(=O)NC2CC(F)(F)C2)cc1NC(=O)c1cnc2ccccn12 [F93]	24
Cc1ccc(-c2noc(C3CC(O)(C(F)(F)F)C3)n2)cc1NC(=O)c1cnc2cc(F)ccn12 (stereo not drawn) [F94]	56
Cc1cn(-c2ccc3ncc(C(=O)Nc4cc(-c5noc(C6CC(F)(F)C6)n5)ccc4C)n3c2)cn1 [F95]	77
COCC1(c2nc(-c3ccc(C)c(NC(=O)c4cnc5ccc(F)cn45)c3)no2)CCC1 [F98]	86
Cc1ccc(-c2noc([C@@H]3C[C@@H]3F)n2)cc1NC(=O)c1cnc2ccccn12 [F101]	67
Cc1ccn2c(C(=O)Nc3cc(-c4noc(COC5CC(F)(F)C5(F)F)n4)ccc3C)cnc2c1 (stereo not drawn) [F102]	9
Cc1ccc2ncc(C(=O)Nc3cc(-c4noc(COC5CC(F)(F)C5(F)F)n4)ccc3C)n2c1 (stereo not drawn) [F103]	16
Cc1ccc(-c2noc(C3CC3)n2)cc1NC(=O)c1cnc2ccccn12 [F104]	57
Cc1ccc(-c2noc(CC3CC3)n2)cc1NC(=O)c1cnc2ccccn12 [F105]	40
Cc1ccn2c(C(=O)Nc3cc(-c4noc([C@H]5C[C@@H]5F)n4)ccc3C)cnc2c1 [F106]	52
Cc1ccn2c(C(=O)Nc3cc(-c4noc([C@@H]5C[C@H]5F)n4)ccc3C)cnc2c1 [F107]	85
Cc1ccc(-c2noc([C@H]3C[C@@H]3F)n2)cc1NC(=O)c1cnc2ccccn12 [F110, N-(5-(5-((1R,2S)-2-fluorocyclopropyl)-1,2,4-oxadiazol-3-yl)-2-methylphenyl)imidazo[1,2-a]pyridine-3-carboxamide]	58
Cc1ccn2c(C(=O)Nc3cc(-c4noc(C5CC(F)C5)n4)ccc3C)cnc2c1 (stereo not drawn) [F111]	46
Cc1ccc2ncc(C(=O)Nc3cc(-c4noc(C5CC(F)C5)n4)ccc3C)n2c1 (stereo not drawn) [F112]	56
Cc1ccc(-c2noc([C@@H]3C[C@H]3F)n2)cc1NC(=O)c1cnc2ccccn12 [F113, N-(5-(5-((1S,2R)-2-fluorocyclopropyl)-1,2,4-oxadiazol-3-yl)-2-methylphenyl)imidazo[1,2-a]pyridine-3-carboxamide]	56
